Assay results taken from US20110313041A1 (priority 2008, published 2011).
Read-outs that look alike come from different tables or passages of the source.

How the values were obtained:
[1] = test system: smooth muscles of lachrymal gland, bladder, stomach, intestine; assay: response experiment to sublingual/buccal Panthenol under Acetylcholinersterase-inhibition; type: in vivo, human; conditions: 2 g Panthenol Tbl. sublingual/buccal
Experimental: Immediately afterwards, response experiment to sublingual/buccal applied 2 g-Panthenol Tbl. was executed. […] After its decay and continuation of the breakfast with bread the same reactions in bladder, womb and bowel 10 minutes later repeated with time shortened duration.
Acetylcholine, the natural excitation transmitter from the nerve to the muscle effects striped muscles in concentrations of 10^−6 g/l, smooth muscles already in concentrations of 10^−16 g/l. (4) These “adverse” reactions are contractions of smooth muscles of lachrymal gland, bladder, stomach, intestine, caused by there suddenly synthesized acetylcholine, which exceeds the Response threshold that is 10^−16 grams per liter of acetylcholine in smooth muscles: • a) within 10 minutes of ingestion into the stomach and after the end of reaction; • b) within 10 minutes of sublingual/buccal absorption of 2000 mg Tbl Panthenol, while Acetylcholinersterase-inhibition amongst 140 mg Neostgminbromid is existing. […] (13)

[2] = target: T1, ACH Esterase (Homo sapiens, UniProt P22303); conditions: 30 mg PB, soldiers, cited from earlier work
T1 construct: endogenous in cells
T1 sequence (P22303 32-614): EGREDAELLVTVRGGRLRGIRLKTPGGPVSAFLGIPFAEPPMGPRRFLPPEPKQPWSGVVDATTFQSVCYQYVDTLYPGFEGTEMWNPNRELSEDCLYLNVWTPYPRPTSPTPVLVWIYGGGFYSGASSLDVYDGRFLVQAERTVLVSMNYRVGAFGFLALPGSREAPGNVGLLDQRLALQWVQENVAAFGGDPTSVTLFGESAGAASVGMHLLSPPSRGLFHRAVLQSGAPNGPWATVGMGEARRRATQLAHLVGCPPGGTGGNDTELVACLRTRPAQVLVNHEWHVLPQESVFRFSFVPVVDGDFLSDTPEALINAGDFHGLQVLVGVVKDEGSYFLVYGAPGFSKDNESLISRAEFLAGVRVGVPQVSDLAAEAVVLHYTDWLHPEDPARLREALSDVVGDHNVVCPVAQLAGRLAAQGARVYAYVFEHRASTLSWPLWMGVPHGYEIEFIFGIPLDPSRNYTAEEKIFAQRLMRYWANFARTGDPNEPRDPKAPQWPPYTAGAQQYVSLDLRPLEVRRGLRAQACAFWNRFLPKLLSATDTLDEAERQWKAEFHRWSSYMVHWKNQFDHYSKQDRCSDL

[3] = cited from earlier work; for side effects: Alzheimer's disease patients; for condition of Alzheimer's disease patients: after administration
[4] = treatment of weakness in metabolic activity with pantothenic acid-CoA; type: in vivo, human; conditions: intake in a large amount
From the text: The invention is based of the surprising finding of Mr.
Muscle weakness and pain, weakness, respiratory weakness, mental exhaustion, and gastric problems have mainly been treated with pantothenic acid-CoA,-buk, vitamins and amino acids.
After improvement and discontinuation of the treatment the symptoms returned after a short interval. Ultimately, the problems could be reduced and neutralised through re-treatment. Only with the normalization of the function of the digestive tract, the absorption of pantothenic acid-CoA from food in the stomach could be reproduced, and the treatment was dispensable.
Disturbed gastric functions and/or depletion of mitochondrial reserves in Myasthenia, autism, chronic fatigue syndrome appears in the fading of the yellowing of the urine. […] The current optimum, the proof of the success of the pantothenic acid-CoA treatment is reached when harmless acetylcholine surplus reactions responses in the bladder, stomach or intestines occur.

Molecule	side effects [3]	condition of Alzheimer's disease patients [3]	effect on symptoms caused by weakness in metabolic activity [4]	further results
CC(C)(CO)[C@@H](O)C(=O)NCCCO [Panthenol]				reaction to first application of Panthenol ([1]; first application, under 140 mg Neostigminbromid): the same adverse reaction started with a similar duration; reaction to anew application of Panthenol ([1]; second application after continued breakfast): the same adverse reaction started, but delayed and lasted for less
CN(C)C(=O)Oc1ccc[n+](C)c1 [Pyridostigminbromid]				adverse cholinergic reactions [2]: nausea, vomiting, stomach cramps, diarrhea, urination, increased salivation, sweating and muscle spasm; adverse cholinergic reactions ([2]; listed as pyridostigmine bromide): nausea, vomiting, abdominal Cramps, diarrhea, increased salivation, sweating, muscle Cramps
CCN(C)C(=O)Oc1cccc([C@H](C)N(C)C)c1 [Rivastigmin]	nausea, vomiting, diarrhea and cramps	improvement of their condition		
Nc1c2c(nc3ccccc13)CCCC2 [Tacrine]	nausea, vomiting, diarrhea and cramps	improvement of their condition		
CC(C)(CO)[C@@H](O)C(=O)NCCC(=O)O [pantothenic acid, Pantothenic acid]			beneficial effect	
pantothenic acid-CoA			beneficial effect	
